From the NIST ThermoML archive (doi:10.1021/je9003959)

Test: refractive index (Na D-line) (dimensionless); xn = mol fraction of the nth substance listed
Conditions: 101 kPa, Liquid, Standard Abbe refractometry

CCN1CCCC1=O [1-ethyl-2-pyrrolidinone] + O
refractive index
Conditions | 293 K | 298 K | 303 K | 313 K | 323 K
x1 = 0.022 | 1.35197 | 1.35144 | 1.34954 | 1.3488 | 1.34707
x1 = 0.05 | 1.37085 | 1.37012 | 1.3694 | 1.36692 | 1.36431
x1 = 0.1 | 1.39584 | 1.39478 | 1.39291 | 1.39022 | 1.38757
x1 = 0.2 | 1.42603 | 1.42432 | 1.42304 | 1.41887 | 1.41711
x1 = 0.3 | 1.44127 | 1.43983 | 1.43715 | 1.4331 | 1.42913
x1 = 0.4 | 1.44975 | 1.44776 | 1.44605 | 1.4418 | 1.43762
x1 = 0.5 | 1.4551 | 1.45307 | 1.45147 | 1.44694 | 1.44273
x1 = 0.6 | 1.45859 | 1.45647 | 1.45435 | 1.45035 | 1.44622
x1 = 0.7 | 1.46118 | 1.459 | 1.4568 | 1.4527 | 1.44864
x1 = 0.8 | 1.46326 | 1.46096 | 1.4586 | 1.45496 | 1.45075
x1 = 0.9 | 1.46478 | 1.4623 | 1.46016 | 1.45641 | 1.45217
x1 = 1 | 1.46461 | 1.46192 | 1.45791 | 1.45415 | 1.45147
